The results in this text go back to PubChem BioAssay AID248 (DTP/NCI, 2004).

Inconclusive results and toxic doses are left out. Square brackets hold non-standard residues; d marks the D form. Peptide text beside a SMILES is read from it. * marks the point of attachment. ξ: configuration not given here. ξE = NC(CCC(=O)O)C(=O)O; Cbz = O=C(OCc1ccccc1)*

The subject of the experiment is L1210 leukemia ip in BDF1 mice, survival T/C. Kind of experiment: NCI In Vivo Anticancer Drug Screen. Data for tumor model L1210 Leukemia (intraperitoneal) in B6D2F1 (BDF1) mice. As to conditions: endpoint: mean survival time, higher = longer survival. In a few lines:
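Read-out is survival time, reported as the treated-group measurement over the vehicle-control measurement.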

Setting [1] is: dose: 50.0 mg/kg/injection, schedule: Q01DX001 (ip), vehicle: saline.
The mark [2] stands for this setting: dose: 100.0 mg/kg/injection, schedule: Q01DX001 (ip), vehicle: saline.
Setting [3] is: dose: 50.0 mg/kg/injection, schedule: Q01DX009 (ip), vehicle: Klucel (hydroxypropylcellulose) (HPC).
[4] abbreviates: dose: 100.0 mg/kg/injection, schedule: Q01DX009 (ip), vehicle: Klucel (hydroxypropylcellulose) (HPC).
Where [5] appears, read: dose: 100.0 mg/kg/injection, schedule: Q01DX009 (ip), vehicle: saline with Tween-80.
Setting [6] is: dose: 100.0 mg/kg/injection, schedule: Q04DX003 (ip), vehicle: saline with Tween-80.
Setting [7] is: dose: 200.0 mg/kg/injection, schedule: Q01DX009 (ip), vehicle: saline with Tween-80.
The mark [8] stands for this setting: dose: 200.0 mg/kg/injection, schedule: Q04DX003 (ip), vehicle: saline with Tween-80.
Where [9] appears, read: dose: 400.0 mg/kg/injection, schedule: Q01DX009 (ip), vehicle: saline with Tween-80.
[10] abbreviates: dose: 400.0 mg/kg/injection, schedule: Q04DX003 (ip), vehicle: saline with Tween-80.
[11] abbreviates: dose: 200.0 mg/kg/injection, schedule: Q01DX009 (ip), vehicle: Klucel (hydroxypropylcellulose) (HPC).
[12] abbreviates: dose: 400.0 mg/kg/injection, schedule: Q01DX009 (ip), vehicle: Klucel (hydroxypropylcellulose) (HPC).
Where [13] appears, read: dose: 100.0 mg/kg/injection, schedule: Q04DX003 (ip), vehicle: Klucel (hydroxypropylcellulose) (HPC).
Where [14] appears, read: dose: 200.0 mg/kg/injection, schedule: Q04DX003 (ip), vehicle: Klucel (hydroxypropylcellulose) (HPC).

As to `CCN=C(c1ccc(NC(=O)c2ccc(C(=O)Nc3ccc(C(=NCC)N(CC)C(=O)Nc4ccc(OCC)cc4)cc3)cc2)cc1)N(CC)C(=O)Nc1ccc(OCC)cc1`, the T/C runs as follows: (dose: 3.75 mg/kg/injection, schedule: Q01DX015 (ip), vehicle: methylcellulose (MC)) 122 % of control; (dose: 7.5 mg/kg/injection, schedule: Q01DX015 (ip), vehicle: methylcellulose (MC)) 150 % of control.
In the case of `Cc1c(/C=N/NC(=O)CCCC(=O)N/N=C/c2c(C)n(C)n(-c3ccccc3)c2=O)c(=O)n(-c2ccccc2)n1C`, the T/C was 102 % of control under setting [1] and 93 % of control under setting [2].
As for `C[N+](C)(C)CCCCCCCCCC[N+](C)(C)CCCCCCCCCC[N+](C)(C)CCCCCCCCCC[N+](C)(C)C`, the T/C is 96 % of control (dose: 25.0 micrograms/kg/injection, schedule: Q04DX003 (ip), vehicle: Klucel (hydroxypropylcellulose) (HPC)); 97 % of control (dose: 50.0 micrograms/kg/injection, schedule: Q04DX003 (ip), vehicle: Klucel (hydroxypropylcellulose) (HPC)); 97 % of control (dose: 100.0 micrograms/kg/injection, schedule: Q04DX003 (ip), vehicle: Klucel (hydroxypropylcellulose) (HPC)).
As to `CCCCOP(=O)(/C=C\c1ccco1)OCCCC`, the T/C reads like this: (dose: 25.0 mg/kg/injection, schedule: Q01DX009 (ip), vehicle: Klucel (hydroxypropylcellulose) (HPC)) 91 % of control; under setting [3], 97 % of control; under setting [4], 92 % of control; (dose: 100.0 mg/kg/injection, schedule: Q01DX009 (ip), vehicle: carboxymethylcellulose (CMC)) 95 % of control.
As to `COC(=O)c1c(Cl)c(Cl)c(C(=O)OC)c(Cl)c1Cl`, the T/C under setting [5] is 91 % of control; the T/C under setting [6] was 90 % of control; the T/C under setting [7] was 92 % of control; the T/C under setting [8] is 90 % of control; the T/C under setting [9] was 92 % of control; the T/C under setting [10] was 95 % of control.
`COc1cccc(CN(C)C)c1C(O)c1ccccc1` (centres undefined): the T/C runs as follows: (dose: 50.0 mg/kg/injection, schedule: Q01DX001 (ip), vehicle: carboxymethylcellulose (CMC)) 95 % of control; (dose: 100.0 mg/kg/injection, schedule: Q01DX001 (ip), vehicle: carboxymethylcellulose (CMC)) 97 % of control; (dose: 200.0 mg/kg/injection, schedule: Q01DX001 (ip), vehicle: carboxymethylcellulose (CMC)) 106 % of control.
As for `CCCCC(CC)CSCC(CC)CCCC` (centres undefined), the T/C reads like this: (dose: 100.0 mg/kg/injection, schedule: Q04DX003 (ip), vehicle: saline sonified) 97 % of control; (dose: 200.0 mg/kg/injection, schedule: Q04DX003 (ip), vehicle: saline sonified) 93 % of control; (dose: 400.0 mg/kg/injection, schedule: Q04DX003 (ip), vehicle: saline sonified) 97 % of control.
As for `CCCCCCCCCCCCCCCCCCNC(=O)N(C)C1CCCCC1`, the T/C is 88 % of control under setting [4], 89 % of control under setting [11] and 101 % of control under setting [12].
As to `C/C(CCC(=O)O)=N/Nc1nnc(N/N=C(/C)CCC(=O)O)c2ccccc12`, the T/C reads like this: under setting [1], 102 % of control; under setting [2], 102 % of control; (dose: 200.0 mg/kg/injection, schedule: Q01DX001 (ip), vehicle: saline) 102 % of control; (dose: 400.0 mg/kg/injection, schedule: Q01DX001 (ip), vehicle: saline) 120 % of control.
As for `COc1ccc(NC(=S)Nc2ccccc2)c(Cl)c1`, the T/C was 105 % of control (dose: 100.0 mg/kg/injection, schedule: Q04DX002 (ip), vehicle: Klucel (hydroxypropylcellulose) (HPC)); 97 % of control (dose: 200.0 mg/kg/injection, schedule: Q04DX002 (ip), vehicle: Klucel (hydroxypropylcellulose) (HPC)); 108 % of control (dose: 400.0 mg/kg/injection, schedule: Q04DX002 (ip), vehicle: Klucel (hydroxypropylcellulose) (HPC)).
In the case of `Cc1ccc(C)c(NC(=O)Nc2ccccc2)c1`, the T/C under setting [4] is 100 % of control; the T/C under setting [13] was 98 % of control; the T/C under setting [11] was 94 % of control; the T/C under setting [14] was 96 % of control; the T/C under setting [12] is 98 % of control; the T/C (dose: 400.0 mg/kg/injection, schedule: Q04DX003 (ip), vehicle: Klucel (hydroxypropylcellulose) (HPC)) was 91 % of control.
Consider `CC(=O)Nc1c(Cc2cc(O)c3ncccc3c2NC(C)=O)cc(O)c2ncccc12`, for which the T/C was 96 % of control (dose: 75.0 mg/kg/injection, schedule: Q01DX001 (ip), vehicle: other); 100 % of control (dose: 150.0 mg/kg/injection, schedule: Q01DX001 (ip), vehicle: other); 103 % of control (dose: 300.0 mg/kg/injection, schedule: Q01DX001 (ip), vehicle: other).
`O=C(O)CCC(NC(=O)CNC(=O)OCc1ccccc1)C(=O)O` (stereo not drawn) (Cbz-Gly-[ξE]-OH): the T/C is, setting by setting: under setting [3], 95 % of control; (dose: 50.0 mg/kg/injection, schedule: Q04DX003 (ip), vehicle: Klucel (hydroxypropylcellulose) (HPC)) 92 % of control; under setting [4], 97 % of control; under setting [13], 96 % of control; under setting [11], 93 % of control; under setting [14], 93 % of control.
For the compound `O=C(Nc1ccccc1C(F)(F)F)c1ccc(Cl)cc1Cl`, the T/C under setting [5] was 91 % of control; the T/C under setting [6] was 94 % of control; the T/C under setting [7] is 96 % of control; the T/C under setting [8] is 92 % of control; the T/C under setting [9] was 89 % of control; the T/C under setting [10] is 95 % of control.
